Laboratory results reported in patent US10961189B2, “Spiro-lactam NMDA receptor modulators and uses thereof” (Aptinyx Inc., priority 2016, dated 2021).

System: Sprague Dawley rats
Assay: Bennett model of mechanical analgesia (sciatic nerve chronic constriction, paw withdrawal threshold);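 note: log paw withdrawal threshold scaled from vehicle group mean (0%) to naive 15 g value (100%)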
Format: in vivo, rat
Description: The Bennett model of mechanical analgesia is used to assess the analgesic effects of compounds as measured by paw withdrawal threshold. Bennett GJ, Xie YK, “A peripheral mononeuropathy in rat that produces disorders of pain sensation like those seen in man,” Pain 33:87-107, 1988. […] Vehicle animals receive the surgery and then receive vehicle rather than test compound. Animals were tested 1 hr, 24 h and 1 wk post-test compound or vehicle administration.
Male 2-3 month old Sprague Dawley rats were used. Harlan was the supplier for all studies. Rats were housed in Lucite cages with aspen wood chip bedding, maintained on a 12:12 light:dark cycle (lights on at 5 AM), and given ad libitum access to Purina lab chow (USA) and tap water throughout the study.
Rats were anesthetized using inhaled isoflurane (2.5%). Sciatic nerve chronic constriction nerve injury surgery was performed as previously described (Bennett and Xie, 1988). An incision (˜1.5 cm in length) was made with a scalpel blade dorsally through skin on the right hind limb, parallel and posterior to femur. Using a small pointed hemostat, the biceps femoris and gluteus superficialis muscles were separated. Using curved blunt forceps, the common sciatic nerve was isolated and exposed. For the mechanical analgesia studies, the whole sciatic nerve was ligated. Using hemostats/forceps and chromic gut (5-0), the nerve was loosely ligated with a square knot; 3 ligatures, 1 mm apart were placed on the nerve. […] Testing occurred approximately 2 weeks post-surgery.
During testing, rats were acclimated to the surface of a suspended wire mesh grid (1 cm×1 cm, with the wire being 0.3 cm in diameter) for 15-20 min. Starting from the smallest, each Von Frey filament was pressed perpendicularly to the plantar surface of the affected (ipsilateral) hind paw until slightly bent and then held for 6 second. If an obvious hind paw withdrawal or a flinching behavior immediately after the withdrawal of the filament was not observed, the next larger filament was used in the same manner. In case of a response, a lower filament was used. This was repeated until six responses were collected.
For all studies, animals were baselined prior to study start to test for allodynia (defined as a paw withdrawal threshold under 5). A subset of animals was tested with gabapentin (150 mg/kg, PO) to ensure at least 50% analgesia. Once it was confirmed animals were ready for study initiation, animals were balanced across groups. All study investigators were blind to treatment conditions. Animals were dosed with 0.1, 1 or 10 mg/kg of test compound via oral gavage (PO), control sets of animals were dosed with gabapentin (150 mg/kg, PO) or vehicle (0.5% Na-CMC in 0.9% sterile saline, PO). Testing occurred 1 h post-dosing with animals retested 24 hrs and 1 week post-dosing. The percent analgesia calculations for each animal were made using the following equation: % analgesia=[(log(x)−y)/((log (z)−y)]*100, where x=the paw withdrawal threshold for the drug-treated animal in grams, y=the average of the log(x) values for the vehicle treated group, and z=the paw withdrawal threshold for naïve animals in grams (historical value of 15 used).
The results are shown in the table below where the percentage of analgesia is measured at 1 hour, 24 hours, and 1 week after compound administration. Since each study had its own gabapentin control group, an example gabapentin control value is shown.

Row | Structure (SMILES) | % analgesia (0.1 mg/kg PO, 1 wk) [%] | % analgesia (0.1 mg/kg PO, 1 h) [%] | % analgesia (0.1 mg/kg PO, 24 h) [%] | % analgesia (1 mg/kg PO, 1 wk) [%] | % analgesia (1 mg/kg PO, 1 h) [%] | % analgesia (1 mg/kg PO, 24 h) [%] | % analgesia (10 mg/kg PO, 1 wk) [%] | % analgesia (10 mg/kg PO, 1 h) [%] | % analgesia (10 mg/kg PO, 24 h) [%]
1 | CC1CCC2(CC1)CNC2=O (racemic) [Compound AD, 7-methyl-2-azaspiro[3.5]nonan-1-one] | 0 | 18.4 | 4.7 | 17.9 | 15.4 | 13.8 | 15.5 | 15.3 | 7.6
2 | O=C1NCC12CCC(OCc1ccccc1)CC2 (single isomer, unassigned) [AI, 7-(benzyloxy)-2-azaspiro[3.5]nonan-1-one] | 7.7 | 5.3 | 7.7 | 10.2 | 40.4 | 23.4 | 22.0 | 50.0 | 33.2
3 | C[C@@H](O)[C@H](NC1CCC2(CC1)CNC2=O)C(N)=O (single isomer, unassigned) [AP] | – | – | – | – | – | – | 0 | 28.0 | 0
4 | COc1ccc(CN2CC3(CCC(O)CC3)C2=O)cc1 (stereo not drawn) [AG] | 1.7 | 26.7 | 14.8 | 0 | 41.5 | 23.7 | 0 | 56.9 | 26.7
5 | O=C1NCC12CCC(O)CC2 (stereo not drawn) [AL, 7-hydroxy-2-azaspiro[3.5]nonan-1-one] | 3.1 | 20.9 | 10.8 | 6.6 | 52.7 | 14.4 | 1.1 | 61.9 | 13.8
